We go through 17 compounds from PubChem BioAssay (NCI).

What all share (assay): growth of human tumour cells (NCI), 48 h
In test [1] the test system is OVCAR-5 ovarian.
In test [2] the test system is SF-295 CNS.
The test system of test [3] is HCT-116 colon.
In test [4] the test system is NCI/ADR-RES ovarian.
Test [5] has as its system HCT-15 colon.
Test [6] concerns K-562 leukemia.
Test [7] concerns A549 NSCLC.
The test system of test [8] is M14 melanoma.
Test [9] deals with KM12 colon.
The subject of test [10] is SF-539 CNS.

Molecules are shown by their SMILES. Where “and” joins values, the source holds several entries; their conditions need not be identical. Identical values can stand only once.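 Each compound was tested at five concentrations against cells in 96-well plates for 48 hours. At the GI50, growth is halved. The concentration for full growth arrest is given as TGI.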

As for `CCCCc1nc2cc(/C=C/C(=O)NO)ccc2n1CCN(CC)CC`, the GI50 in test [1] was 0.13 µM; in test [2], 0.26 µM; in test [3], 0.115 µM; in [4], 0.239 µM; in test [5] it was 1.47 µM; in test [6], 0.282 µM. Also, the GI50 in test [7] was 0.318 µM; in test [8], 0.358 µM; in test [9], 0.356 µM; in test [10], 0.335 µM. Further, the TGI in test [1] is 1.4 µM; in test [2], 1.23 µM; in test [3] it was 0.571 µM; in test [4] it was 4.03 µM; in test [5] it was 22.4 µM; in [6], greater than 100 µM. Besides, the TGI amounted to 2.4 µM in test [7], 5.32 µM in test [8], 5.73 µM in [9] and 18.5 µM in test [10].

As for `O=C(Nc1ccccc1F)c1ccc(NC2=C(Cl)C(=O)N(Cc3ccccc3)C2=O)cc1`, the GI50 in test [1] was 16.6 µM; in test [2], 10.7 µM; in test [3], 8.4 µM; in [4], 11.5 µM; in [5], 3.38 µM; in test [6], 2.68 µM. The GI50 in test [7] is 13.5 µM; in test [8], 4.02 µM; in [9] it was 14.8 µM; in test [10] it was 6.18 µM. Further, the TGI in [1] was determined as 30.2 µM; in [2], 22.6 µM; in test [3], 20.6 µM; in [4], 23.6 µM; in test [5], 12.3 µM; in [6], 12.1 µM. The TGI in test [7] is 26.3 µM; in test [8] it was 17 µM; in test [9], 34.3 µM; in test [10] it was 18 µM.

As for `CC(C)(CCC(C)(C)c1ccccc1)c1ccccc1`, the TGI stood at 33.5 µM in test [1]; 31.6 µM in test [2]; 29.4 µM in [3]; 36.9 µM in [4]; 45.7 µM in test [5]; 61.2 µM in test [6]. Besides, the TGI in test [7] was greater than 100 µM; in [8], 52.7 µM; in test [9] it was 30.6 µM; in test [10] it was 43.6 µM.

For `COc1cccc2c(Nc3ccc(C(=O)NCCN(C)C)cc3)cc(-c3ccccc3)nc12`, the GI50 in test [1] is 23.7 µM; in test [2], 22.9 µM; in [3], 3.88 µM; in test [4], 18.3 µM; in test [5] it was 16.4 µM; in [6] it was 10.8 µM. For the same compound, the GI50 is 16 µM in test [7], 16.3 µM in test [8], 19.7 µM in [9] and 19.1 µM in test [10]. Further, the TGI stood at 50.6 µM in test [1]; 41.4 µM in test [2]; 18.6 µM in test [3]; 42.9 µM in [4]; 38.4 µM in [5]; 31.5 µM in test [6]. Also, the TGI in test [7] stood at 33.1 µM; in test [8], 30.5 µM; in [9], 43.2 µM; in test [10], 37.1 µM.

Turning to `CC(C)c1ccc(O)c(=O)cc1`, the GI50 in [1] was 6.84 µM; in test [2], 7.57 µM; in [3], 3.92 µM; in [4], 3.64 µM; in [5] it was 4.95 µM; in test [6], 3.63 µM. Also, the GI50 in test [7] is 4.69 µM; in test [8] it was 16.3 µM; in [9], 5.28 µM; in [10] it was 7.69 µM. Moreover, the TGI in [1] was 64.8 µM and > 100 µM; in test [2], greater than 100 µM; in [3], 13.4 µM and 37.2 µM; in [4], 59.3 µM; in [5] it was greater than 100 µM; in [6] it was > 53.1 µM and 14.6 µM. For the same compound, the TGI in test [7] is greater than 71.4 µM; in [8], 40.6 µM; in test [9], greater than 100 µM; in [10] it was 17 µM.

For `C=CCNc1cccc2c1C(=O)c1ccccc1C2(O)CC=C` (stereo not given), the GI50 is 31.5 µM in test [1]; 25.7 µM in [2]; 17.7 µM in test [3]; 22.4 µM in test [4]; 15.5 µM in [5]; 31.1 µM in test [6]. Also, the GI50 is 23.7 µM in test [7], 19 µM in [8], 23.6 µM in test [9] and 19.5 µM in test [10]. In addition, the TGI in [1] amounted to 67.9 µM; in test [2] it was 55 µM; in test [3] it was 32.3 µM; in test [4], 58.4 µM; in [5], 57 µM; in test [6], 95.2 µM. The TGI in test [7] is 69 µM; in [8] it was 41 µM; in [9], 56.9 µM; in [10], 38.4 µM.

For the compound `N#Cc1ccc2oc3ccc(C#N)cc3c(=O)c2c1`, the TGI in [1] was 34.5 µM; in test [2] it was 47.1 µM; in test [3], greater than 100 µM; in test [4], greater than 100 µM; in test [5] it was greater than 100 µM; in [6], greater than 100 µM. The TGI in [7] is 57 µM; in [8] it was greater than 100 µM; in [9] it was greater than 100 µM; in [10] it was 43.6 µM.

For `NCC(=O)CCC(=O)O`, the GI50 in [1], in [2], in test [3], in test [4], in test [5] and in [6] was greater than 100 µM each time. Moreover, the GI50 in test [7], in test [8], in test [9] and in test [10] was greater than 100 µM throughout. Also, the TGI in test [1], in test [2], in test [3], in test [4], in [5] and in [6] was greater than 100 µM in each case. Further, the TGI in [7], in test [8], in [9] and in test [10] was greater than 100 µM each time.

As to `CS(=O)(=O)CS(=O)CS(=O)CS(=O)CC(NC(=O)CCC(N)C(=O)O)C(=O)O` (stereo not given), the TGI in [1], in test [2], in test [3], in test [4], in test [5] and in test [6] was greater than 100 µM in each case. The TGI in [7], in test [8], in [9] and in [10] was greater than 100 µM in each case.

As to `Nc1c(O)c(S(=O)(=O)O)c(O)c2c1C(=O)c1ccccc1C2=O`, the GI50 in test [1] is 3.22 µM; in test [2] it was 2.32 µM; in [3], 2.78 µM; in [4] it was 2.99 µM; in [5], 2.64 µM; in [6] it was 3.13 µM. Further, the GI50 is 2.9 µM in [7], 3.95 µM in test [8], 2.94 µM in test [9] and 6.36 µM in [10]. In addition, the TGI is 32.5 µM in [1]; 7.27 µM in test [2]; 10.9 µM in [3]; 13.9 µM in test [4]; 11.2 µM in test [5]; 13.9 µM in [6]. In addition, the TGI in test [7] was 12 µM; in [8], greater than 100 µM; in test [9] it was 12.8 µM; in test [10] it was 30.6 µM.

For `CC1(C)CC[C@]2(C(=O)O)CC[C@]3(C)[C@H](CC[C@@H]4[C@@]5(C)CCC(=O)C(C)(C)[C@@H]5CC[C@]43C)[C@H]2[C@H]1OC(=O)C(F)(F)F`, the GI50 in test [1] is 15.7 µM; in test [2], 14.6 µM; in [3], 4.8 µM; in test [4], 12.3 µM; in [5], 4.99 µM; in test [6], 3.61 µM. Further, the GI50 in test [7] is 9.66 µM; in [8], 8.34 µM; in test [9], 10.4 µM; in test [10] it was 5.34 µM. The TGI in test [1] was 30.7 µM; in test [2], 30.1 µM; in [3], 17.8 µM; in test [4], 26.2 µM; in test [5], 18.1 µM; in [6] it was 20.9 µM. Besides, the TGI in test [7] was 31.6 µM; in test [8], 27 µM; in test [9], 24.4 µM; in test [10], 18.1 µM.

Turning to `COc1ccc(C(=O)N/N=C/c2ccc(O)cc2O)cc1Nc1ccnc(C(F)(F)F)c1`, the GI50 is 1.16 µM in [1]; 1.07 µM in test [2]; 0.354 µM in [3]; 11.9 µM in test [4]; 2.45 µM in [5]; 0.485 µM in [6]. The GI50 in [7] is 5.11 µM; in test [8], 0.731 µM; in test [9] it was 1.82 µM; in test [10], 0.404 µM. Moreover, the TGI is 33 µM in test [1]; 20.6 µM in test [2]; 8.77 µM in test [3]; greater than 100 µM in test [4]; greater than 100 µM in test [5]; greater than 35.6 µM in [6]. In addition, the TGI in test [7] is greater than 53.9 µM; in test [8], 5.55 µM; in test [9] it was 13.9 µM; in test [10], 7.78 µM.

As to `C[C@@]12CCC[C@@](C)(C(=O)O)C1CC[C@@]13CC(=O)[C@@](CO)(CCC12)C3` (stereo not given in full), the GI50 in [1], in test [2], in [3], in test [4], in test [5] and in test [6] was greater than 100 µM each time. In addition, the GI50 in test [7], in [8], in test [9] and in test [10] was greater than 100 µM each time. Also, the TGI in test [1], in [2], in [3], in [4], in test [5] and in test [6] was greater than 100 µM throughout. Besides, the TGI in test [7], in test [8], in test [9] and in [10] was greater than 100 µM in each case.

For the compound `C=C1CO[C@@H]2C[C@@H]1CCC1(C)OC1CC/C(C)=C/CC[C@@]2(C)O` (stereo not given in full), the GI50 in test [1] was greater than 100 µM; in [2] it was 18.4 µM; in [3], 15.7 µM; in test [4] it was 32.3 µM; in [5], 35.8 µM; in test [6], 0.302 µM. In addition, the GI50 was 17 µM in [7], 44.1 µM in [8], 17.7 µM in test [9] and 16.1 µM in test [10]. Besides, the TGI was greater than 100 µM in [1]; 44.7 µM in test [2]; 31.2 µM in test [3]; greater than 67.4 µM in [4]; greater than 87 µM in test [5]; 7.02 µM in test [6]. Besides, the TGI in [7] is 34.9 µM; in test [8] it was greater than 100 µM; in test [9], 42 µM; in test [10], 31.3 µM.

On to `Cc1nc2ccc(NCCN(C)C)c3c(=O)c4cc(O)ccc4n1c23`, for which the TGI worked out at 6.05 µM in test [1]; 5.87 µM in [2]; 2.22 µM in [3]; 7.29 µM in test [4]; 2.8 µM in test [5]; 4.25 µM in test [6]. Also, the TGI in test [7] turned out to be 3.39 µM; in test [8], 15.9 µM; in [9], 4.09 µM; in [10], 12.2 µM.

For the compound `OC(C(=Nc1ccccc1)c1ccccc1)c1ccccc1` (stereo not given), the TGI in test [1] is 82.3 µM; in [2] it was 26.3 µM; in [3], 31.8 µM; in test [4], 65.7 µM; in [5], greater than 100 µM; in test [6], greater than 100 µM. Besides, the TGI came to 33.6 µM in [7], 39.1 µM in [8], 10.4 µM in test [9] and 25.3 µM in test [10].

Consider `COC(=O)c1cc2c(cc1Cl)SC(N(N(C)C)S(=O)(=O)c1ccc(Cl)cc1)=NS2(=O)=O`, for which the GI50 in test [1] was 20.1 µM; in test [2] it was 18 µM; in test [3], 15.6 µM; in test [4], 15.2 µM; in [5] it was 14.1 µM; in test [6] it was 11.3 µM. Moreover, the GI50 is 17.2 µM in test [7], 15.8 µM in [8], 13.8 µM in test [9] and 15.8 µM in test [10]. The TGI in [1] was 46.7 µM; in test [2], 51.2 µM; in [3], 29 µM; in test [4] it was 39.9 µM; in test [5] it was 27.1 µM; in [6], 23.8 µM. For the same compound, the TGI in test [7] is greater than 100 µM; in [8], 32 µM; in test [9], 27 µM; in test [10], 31.5 µM.
